Laboratory results as given in the SangsterLogP compilation.

| Compound | logP |
| --- | --- |
| Cc1ccccc1N1CCNCC1 | 2.14 |
| c1ccc2c(N3CCNCC3)nsc2c1 | 2.14 |
| c1csc(N2CCNCC2)n1 | 0.61 |
| Fc1ccc(N2CCNCC2)cc1 | 1.28 |
| Clc1ccc(N2CCNCC2)cc1 | 2.01 |
| Fc1cnc(N2CCNCC2)nc1 | 0.97 |
| FC(F)(F)c1cccc(N2CCNCC2)c1 | 2.43 |
| Clc1ccccc1N1CCNCC1 | 2.13 |
| c1cnc(N2CCNCC2)nc1 | 0.49 |
| c1ccc(N2CCNCC2)nc1 | 0.74 |
| Clc1cccc(N2CCNCC2)c1 | 2.11 |
| COc1ccccc1N1CCNCC1 | 1.09 |
| c1ccc2nc(N3CCNCC3)ccc2c1 | 2.04 |
